Consider 10 molecules from ChEMBL document CHEMBL4038280, “Synthesis and human/bacterial carbonic anhydrase inhibition with a series of sulfonamides incorporating phthalimido moieties” (Bioorg Med Chem, 2017).

Assay [1] can be described thus: Inhibition of Vibrio cholerae beta carbonic anhydrase preincubated for 15 mins by stopped flow CO2 hydration assay.
The nature of assay [2]: Inhibition of Vibrio cholerae alpha carbonic anhydrase preincubated for 15 mins by stopped flow CO2 hydration assay.

For orientation: Ki means the equilibrium dissociation constant of an inhibitor or competing ligand from its target. For the molecule `COc1cc(NC(=O)c2ccc3c(c2)C(=O)N(c2ccc(S(N)(=O)=O)cc2)C3=O)c(C(=O)O)cc1OC`, the Ki in assay [1] is 7.97 µM; in assay [2], 2.84 µM.
The corresponding values for `Cc1ccc(NC(=O)c2ccc3c(c2)C(=O)N(c2ccc(S(N)(=O)=O)cc2)C3=O)c(C(=O)O)c1` are 5.42 µM and 1.68 µM.
The corresponding values for `COc1cc(NC(=O)c2ccc3c(c2)C(=O)N(CCc2ccc(S(N)(=O)=O)cc2)C3=O)c(C(=O)O)cc1OC` are 8.58 µM and 3.19 µM.
Turning to `Cc1ccc(NC(=O)c2ccc3c(c2)C(=O)N(CCc2ccc(S(N)(=O)=O)cc2)C3=O)c(C(=O)O)c1`, the Ki in assay [1] was 9.26 µM; in assay [2], 1.96 µM.
The corresponding values for `Cc1ccc(NC(=O)c2ccc3c(c2)C(=O)N(Cc2ccc(S(N)(=O)=O)cc2)C3=O)c(C(=O)O)c1` are 8.2 µM and 2.59 µM.
The corresponding values for `COc1cc(NC(=O)c2ccc3c(c2)C(=O)N(Cc2ccc(S(N)(=O)=O)cc2)C3=O)c(C(=O)O)cc1OC` are 9.26 µM and 2.93 µM.
As to `NS(=O)(=O)c1ccc(N2C(=O)c3ccc(C(=O)Nc4ccc(I)cc4C(=O)O)cc3C2=O)cc1`, the figures for the Ki in assay [1] and in assay [2] were 5.4 µM and 0.281 µM, respectively.
Take `NS(=O)(=O)c1ccc(CCN2C(=O)c3ccc(C(=O)Nc4ccc(I)cc4C(=O)O)cc3C2=O)cc1`: the Ki in assay [1] was determined as 6.75 µM; in assay [2] it was 2.58 µM.
In the case of `NS(=O)(=O)c1ccc(CN2C(=O)c3ccc(C(=O)Nc4ccc(I)cc4C(=O)O)cc3C2=O)cc1`, the Ki in assay [1] is 6.78 µM; in assay [2], 1.33 µM.
Take `CC(=O)Nc1nnc(S(N)(=O)=O)s1` [ACETAZOLAMIDE]: the values for the Ki in assay [1] and in assay [2] were […] and […], respectively.
